Here are results for 35 molecules from ChEMBL document CHEMBL3046569 (Med Chem Res, 2011).

Series [1] concerns Human immunodeficiency virus 1. Kind of series: Antiviral activity against Human immunodeficiency virus 1 infected human H9 cells assessed as inhibition of viral replication. The following applies: Human immunodeficiency virus 1, H9. The format is functional, organism-based.
A short description of series [2]: Therapeutic index, ratio of IC50 for human H9 cells to EC50 for HIV1. The following applies: for pTI: h9; for selectivity ratio: H9 cells, read-out: Ratio IC50/EC50. The class given is cell-based.

Regarding `C=C(COC(=O)CC1(CC(=O)O)CCCC1)[C@@H]1CC[C@]2(COC(=O)CC3(CC(=O)O)CCCC3)CC[C@]3(C)[C@H](CC[C@@H]4[C@@]5(C)CC[C@H](OC(=O)CC6(CC(=O)O)CCCC6)C(C)(C)[C@@H]5CC[C@]43C)[C@@H]12`, the EC50 in series [1] (read-out: pEC50 (converted)) was 5.4 nM. For the same molecule, in series [2], the pTI is -3.076.
The corresponding values for `C=C(COC(C)=O)[C@@H]1CC[C@]2(COC(C)=O)CC[C@]3(C)[C@H](CC[C@@H]4[C@@]5(C)CC[C@H](OC(C)=O)C(C)(C)[C@@H]5CC[C@]43C)[C@@H]12` are 10200 nM and -0.398.
`CC(C)[C@@H]1CC[C@]2(COC(=O)CC3(CC(=O)O)CCCC3)CC[C@]3(C)[C@H](CC[C@@H]4[C@@]5(C)CC[C@H](OC(=O)CC6(CC(=O)O)CCCC6)C(C)(C)[C@@H]5CC[C@]43C)[C@@H]12`: in series [1] (read-out: pEC50 (converted)), the EC50 is 579 nM. Further, in series [2], the pTI is reported as -1.568.
Regarding `C=C(C)[C@@H]1CC[C@]2(C(=O)O)CC[C@]3(C)[C@H](CC[C@@H]4[C@@]5(C)CC[C@H](O)C(C)(C)[C@@H]5CC[C@]43C)[C@@H]12` (stereo in doubt; 8) [BETULINIC ACID], in series [1] (read-out: pEC50 (converted)), the EC50 is 899 nM. Besides, the pTI in series [2] was -1.146.
The corresponding values for `CC(C)[C@@H]1CC[C@]2(C(=O)OCc3ccccc3)CC[C@]3(C)[C@H](CC[C@@H]4[C@@]5(C)CC[C@H](OC(=O)CC(C)(C)C(=O)O)C(C)(C)[C@@H]5CC[C@]43C)[C@@H]12` are 230 nM and -1.748.
Taken in the same sequence, the figures for `CC(C)[C@@H]1CC[C@]2(COC(=O)CC(C)(C)CC(=O)O)CC[C@]3(C)[C@H](CC[C@@H]4[C@@]5(C)CC[C@H](OC(=O)CC(C)(C)CC(=O)O)C(C)(C)[C@@H]5CC[C@]43C)[C@@H]12` were 4.7 nM and -3.353.
Taken in the same sequence, the figures for `CC(C)[C@@H]1CC[C@]2(C(=O)O)CC[C@]3(C)[C@H](CC[C@@H]4[C@@]5(C)CC[C@H](OC(=O)COCC(=O)O)C(C)(C)[C@@H]5CC[C@]43C)[C@@H]12` were 5.6 nM and -3.37.
Regarding `C=C(C)[C@@H]1CC[C@]2(/C=N/O)CC[C@]3(C)[C@H](CC[C@@H]4[C@@]5(C)CC/C(=N\O)C(C)(C)[C@@H]5CC[C@]43C)[C@@H]12` [BETULIN-3,28-DIOXIME], the EC50 in series [1] (read-out: pEC50 (converted)) was 1070 nM. In series [2], the pTI was -0.708.
As to `C=C(C)[C@@H]1CC[C@]2(COC(=O)CC(C)(CC)CC(=O)O)CC[C@]3(C)[C@H](CC[C@@H]4[C@@]5(C)CC[C@H](OC(=O)CC(C)(CC)CC(=O)O)C(C)(C)[C@@H]5CC[C@]43C)[C@@H]12` (stereo not given in full), the EC50 in series [1] (read-out: pEC50 (converted)) is 5.3 nM. The pTI in series [2] is -3.541.
The corresponding values for `CC(C)[C@@H]1CC[C@]2(C(=O)O)CC[C@]3(C)[C@H](CC[C@@H]4[C@@]5(C)CC[C@H](OC(=O)CCCC(=O)O)C(C)(C)[C@@H]5CC[C@]43C)[C@@H]12` are 1800 nM and -0.875.
Consider `C=C(C)[C@@H]1CC[C@]2(C(=O)O)CC[C@]3(C)[C@H](CC[C@@H]4[C@@]5(C)CC[C@H](OC(=O)COCC(=O)O)C(C)(C)[C@@H]5CC[C@]43C)[C@@H]12`, for which, in series [1] (read-out: pEC50 (converted)), the EC50 is 10 nM. The pTI in series [2] is listed as -3.069.
In the case of `CC(C)[C@@H]1CC[C@]2(C(=O)O)CC[C@]3(C)[C@H](CC[C@@H]4[C@@]5(C)CC[C@H](OC(=O)C(C)(C)CC(=O)O)C(C)(C)[C@@H]5CC[C@]43C)[C@@H]12`, the EC50 in series [1] (read-out: pEC50 (converted)) was 560 nM. The pTI in series [2] is -1.14.
In the case of `CC(C)[C@@H]1CC[C@]2(C(=O)OC(=O)OCN(C)C)CC[C@]3(C)[C@H](CC[C@@H]4[C@@]5(C)CCC(=O)C(C)(C)[C@@H]5CC[C@]43C)[C@@H]12`, in series [1] (read-out: pEC50 (converted)), the EC50 is 3800 nM. In addition, the pTI in series [2] is on record as -0.544.
On to `CC(C)[C@@H]1CC[C@]2(C(=O)O)CC[C@]3(C)[C@H](CC[C@@H]4[C@@]5(C)CC[C@H](OC(=O)CC(C)(C)C(=O)O)C(C)(C)[C@@H]5CC[C@]43C)[C@@H]12`, for which, in series [1] (read-out: pEC50 (converted)), the EC50 is 0.3 nM. The pTI in series [2] is listed as -4.146.
On to `C=C(C)[C@@H]1CC[C@]2(C(=O)O)CC[C@]3(C)[C@H](CC[C@@H]4[C@@]5(C)CC[C@H](OC(=O)CC(C)(C)C(=O)O)C(C)(C)[C@@H]5CC[C@]43C)[C@@H]12` [BEVIRIMAT], for which the values for the EC50 in series [1] (read-out: EC50) and in series [1] (read-out: pEC50 (converted)) were 0.35 nM and 0.3 nM, respectively. The selectivity ratio in series [2] was found to be 20000. Moreover, the pTI in series [2] is -4.301.
For the molecule `C=C(COC(=O)CC(C)(C)CC(=O)O)[C@@H]1CC[C@]2(COC(=O)CC(C)(C)CC(=O)O)CC[C@]3(C)[C@H](CC[C@@H]4[C@@]5(C)CC[C@H](OC(=O)CC(C)(C)CC(=O)O)C(C)(C)[C@@H]5CC[C@]43C)[C@@H]12`, the EC50 in series [1] (read-out: pEC50 (converted)) is 45 nM. In addition, in series [2], the pTI is -2.59.
Taken in the same sequence, the figures for `CC(C)[C@@H]1CC[C@]2(C(=O)OCc3ccccc3)CC[C@]3(C)[C@H](CC[C@@H]4[C@@]5(C)CC[C@H](OC(=O)CCCC(=O)O)C(C)(C)[C@@H]5CC[C@]43C)[C@@H]12` were 500 nM and -1.279.
The corresponding values for `CC(C)[C@@H]1CC[C@]2(COC(=O)CCCC(=O)O)CC[C@]3(C)[C@H](CC[C@@H]4[C@@]5(C)CC[C@H](OC(=O)CCCC(=O)O)C(C)(C)[C@@H]5CC[C@]43C)[C@@H]12` are 1600 nM and -1.23.
Taken in the same sequence, the figures for `CC(C)[C@@H]1CC[C@]2(C(=O)O)CC[C@]3(C)[C@H](CC[C@@H]4[C@@]5(C)CC[C@H](OC(=O)CC(C)(C)CC(=O)O)C(C)(C)[C@@H]5CC[C@]43C)[C@@H]12` were 5.7 nM and -3.007.
As for `CC(C)[C@@H]1CC[C@]2(C(=O)OC(=O)N3CCOCC3)CC[C@]3(C)[C@H](CC[C@@H]4[C@@]5(C)CC[C@H](O)C(C)(C)[C@@H]5CC[C@]43C)[C@@H]12`, the EC50 in series [1] (read-out: pEC50 (converted)) was 26000 nM. Moreover, the pTI in series [2] is on record as -0.114.
The corresponding values for `C=C(C)[C@@H]1CC[C@]2(CNC(=O)CC(C)(C)CC(=O)O)CC[C@]3(C)[C@H](CC[C@@H]4[C@@]5(C)CC[C@H](NC(=O)CC(C)(C)CC(=O)O)C(C)(C)[C@@H]5CC[C@]43C)[C@@H]12` are 570 nM and -1.564.
For the molecule `C=C(C)[C@@H]1CC[C@]2(CO)CC[C@]3(C)[C@H](CC[C@@H]4[C@@]5(C)CC[C@H](O)C(C)(C)[C@@H]5CC[C@]43C)[C@@H]12` [BETULIN], in series [2], the selectivity ratio turned out to be 1.9 and the pTI is recorded as -0.279.
For `C=C(C)[C@@H]1CC[C@]2(COC(C)=O)CC[C@]3(C)[C@H](CC[C@@H]4[C@@]5(C)CC[C@H](OC(C)=O)C(C)(C)[C@@H]5CC[C@]43C)[C@@H]12` [BETULIN DIACETATE], the EC50 in series [1] (read-out: pEC50 (converted)) was 190000 nM. The pTI in series [2] stood at 0.
On to `C=C(C)[C@@H]1CC[C@]2(C(=O)OC(=O)N3CCOCC3)CC[C@]3(C)[C@H](CC[C@@H]4[C@@]5(C)CC[C@H](O)C(C)(C)[C@@H]5CC[C@]43C)[C@@H]12`, for which the EC50 in series [1] (read-out: pEC50 (converted)) was 3200 nM. For the same molecule, the pTI in series [2] is reported as -0.556.
With `C=C(C)[C@@H]1CC[C@]2(CN)CC[C@]3(C)[C@H](CC[C@@H]4[C@@]5(C)CC[C@H](N)C(C)(C)[C@@H]5CC[C@]43C)[C@@H]12`, the EC50 in series [1] (read-out: pEC50 (converted)) was 1070 nM. The pTI in series [2] is -0.708.
For `C=C(C)[C@@H]1CC[C@]2(C(=O)O)CC[C@]3(C)[C@H](CC[C@@H]4[C@@]5(C)CC[C@H](OC(=O)CCCC(=O)O)C(C)(C)[C@@H]5CC[C@]43C)[C@@H]12`, the EC50 in series [1] (read-out: pEC50 (converted)) is 44 nM. Further, the pTI in series [2] is on record as -2.465.
In the case of `C=C(C)[C@@H]1CC[C@]2(COC(=O)CC(C)(C)CC(=O)O)CC[C@]3(C)[C@H](CC[C@@H]4[C@@]5(C)CC[C@H](O)C(C)(C)[C@@H]5CC[C@]43C)[C@@H]12`, the EC50 in series [1] (read-out: pEC50 (converted)) was 3600 nM. The pTI in series [2] was -0.892.
Take `C=C(C)[C@@H]1CC[C@]2(C(=O)O)CC[C@]3(C)[C@H](CC[C@@H]4[C@@]5(C)CC[C@H](OC(=O)CC(C)(C)CC(=O)O)C(C)(C)[C@@H]5CC[C@]43C)[C@@H]12`: in series [1] (read-out: pEC50 (converted)), the EC50 was 2.3 nM.
With `CC(C)CC(=O)O[C@H]1CC[C@]2(C)[C@H]3CC[C@@H]4[C@H]5[C@H](C(C)C)CC[C@]5(C(=O)O)CC[C@@]4(C)[C@]3(C)CC[C@H]2C1(C)C`, the EC50 in series [1] (read-out: pEC50 (converted)) is 1500 nM. Also, the pTI in series [2] is -1.748.
Taken in the same sequence, the figures for `C=C(C)[C@@H]1CC[C@]2(CO)CC[C@]3(C)[C@H](CC[C@@H]4[C@@]5(C)CC[C@@H](O)C(C)(C)[C@@H]5CC[C@]43C)[C@@H]12` [3-EPI-BETULIN] were 3620 nM and -0.532.
In the case of `C=C(C)[C@@H]1CC[C@]2(COC(=O)CC3(CC(=O)O)CCCC3)CC[C@]3(C)[C@H](CC[C@@H]4[C@@]5(C)CC[C@H](O)C(C)(C)[C@@H]5CC[C@]43C)[C@@H]12`, the EC50 in series [1] (read-out: pEC50 (converted)) was 2100 nM. Moreover, the pTI in series [2] was -0.785.
Taken in the same sequence, the figures for `C=C(C)[C@@H]1CC[C@]2(COC(=O)CCCC(=O)O)CC[C@]3(C)[C@H](CC[C@@H]4[C@@]5(C)CC[C@H](OC(=O)CCCC(=O)O)C(C)(C)[C@@H]5CC[C@]43C)[C@@H]12` were 3800 nM and -0.833.
On to `C=C(C)[C@@H]1CC[C@]2(C(=O)O)CC[C@]3(C)[C@H](CC[C@@H]4[C@@]5(C)CC[C@H](OC(=O)C(C)(C)CC(=O)O)C(C)(C)[C@@H]5CC[C@]43C)[C@@H]12`, for which the EC50 in series [1] (read-out: pEC50 (converted)) was 2700 nM. Besides, the pTI in series [2] is listed as -0.826.
The corresponding values for `C=C(C)[C@@H]1CC[C@]2(NOC(=O)CCC(C)(C)CC(=O)O)CC[C@]3(C)[C@H](CC[C@@H]4[C@@]5(C)CC/C(=N\OC(=O)CCC(C)(C)CC(=O)O)C(C)(C)[C@@H]5CC[C@]43C)[C@@H]12` are 4570 nM and -0.532.
With `C=C(C)[C@@H]1CC[C@]2(C(=O)O)CC[C@]3(C)[C@H](CC[C@@H]4[C@@]5(C)CC[C@H](O)C(C)(C)[C@@H]5CC[C@]43C)[C@@H]12` (stereo in doubt; 1) [BETULINIC ACID], in series [2], the pTI is listed as -0.969.
